Test results from PubChem BioAssay (NCI).
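How tested: cells in 96-well plates exposed to compound for 48 hours at five concentrations. GI50: concentration for 50% inhibition of growth. TGI is the concentration that stops growth completely.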

Tests used:
Assay in all cases: inhibition of tumour cell growth, NCI panel, 48 h
SN12C renal = test system: SN12C renal
COLO 205 colon = test system: COLO 205 colon
NCI-H460 lung = test system: NCI-H460 lung
SF-268 CNS = test system: SF-268 CNS
T-47D breast = test system: T-47D breast
OVCAR-5 ovarian = test system: OVCAR-5 ovarian
HOP-92 NSCLC = test system: HOP-92 NSCLC
MALME-3M melanoma = test system: MALME-3M melanoma
DMS 273 small cell lung = test system: DMS 273 small cell lung
M19-MEL melanoma = test system: M19-MEL melanoma

Row | Structure (SMILES) | TGI (SN12C renal) [µM] | TGI (COLO 205 colon) [µM] | TGI (NCI-H460 lung) [µM] | TGI (SF-268 CNS) [µM] | TGI (T-47D breast) [µM] | TGI (OVCAR-5 ovarian) [µM] | TGI (HOP-92 NSCLC) [µM] | TGI (MALME-3M melanoma) [µM] | GI50 (SN12C renal) [µM] | GI50 (COLO 205 colon) [µM] | GI50 (NCI-H460 lung) [µM] | GI50 (SF-268 CNS) [µM] | GI50 (T-47D breast) [µM] | GI50 (OVCAR-5 ovarian) [µM] | GI50 (HOP-92 NSCLC) [µM] | GI50 (MALME-3M melanoma) [µM] | TGI (DMS 273 small cell lung) [µM] | TGI (M19-MEL melanoma) [µM]
1 | O=C1OC(=O)C2CCCC3CCCC1C32 (configuration not stated) | > 100 | > 100 | > 100 | > 100 | > 100 | > 100 | > 100 | > 100 |  |  |  |  |  |  |  |  |  | 
2 | CN1CCN(c2ccc(NC(=O)c3cncnc3Nc3ccc(OCc4ccccn4)c(Cl)c3)cc2)CC1 | 8.72 | 6.19 | 7.57 | 11.2 | 7.83 | 9.11 | 9.28 | 3.69 | 3.93 | 1.41 | 2.27 | 5.03 | 1.98 | 3.5 | 3.11 | 0.886 |  | 
3 | CCC(=O)Nc1ccc(C)c(-c2ccc(C(=O)NCC3CC3)cc2)c1 | > 25 | > 25 | > 25 | > 25 | > 25 | > 25 | > 25 | > 25 | > 25 | > 25 | > 25 | > 25 | 14.6 | > 25 | > 25 | > 25 |  | 
4 | C=C(CO)[C@@H]1CC[C@]2(COC3CCCCO3)CC[C@]3(C)[C@H](CC[C@@H]4[C@@]5(C)C=C(C=O)C(=O)C(C)(C)[C@@H]5CC[C@]43C)[C@@H]12 (some centres not stated) | 0.671 | 0.833 | 1.75 | 0.979 | 1.65 | 0.853 | 0.312 | 0.544 | 0.228 | 0.273 | 0.5 | 0.297 | 0.332 | 0.232 | 0.147 | 0.222 |  | 
5 | Cc1ccc(C(=O)/C=C/c2cccc([N+](=O)[O-])c2)cc1 | > 100 | > 55.9 | > 100 | > 100 |  |  | > 100 | > 100 |  |  |  |  |  |  |  |  | > 100 | > 62.3
6 | Clc1ccccc1CNc1c2ccccc2nc2ccccc12 | 8.27 | 6.16 | 6.19 | 11.4 | 13 | 9.09 | 8.45 | 9.1 | 1.93 | 1.6 | 1.7 | 2.95 | 2.3 | 2.16 | 1.91 | 2.71 |  | 
7 | CC(CN(C)C)Oc1ccccc1NC1=C(Cl)C(=O)C(Nc2ccccc2OC(C)CN(C)C)=C(Cl)C1=O (configuration not stated) | 0.853 | 0.359 | 2.9 | 3.06 | 0.455 | 2.44 | 0.807 | 1.38 | 0.347 | 0.174 | 1.3 | 1.49 | 0.175 | 0.935 | 0.268 | 0.605 |  | 
8 | CC1(C)NCCC[C@]2(C)[C@H]3CC[C@@H]4[C@H]5[C@H](C(=O)/C=C/c6ccccn6)CC[C@]5(CO)CC[C@@]4(C)[C@]3(C)CC[C@@H]12 | 16.8 | 4.28 | 3.49 | 31.2 | 16 | 16.9 | 7.73 | 3.51 | 3.51 | 2.07 | 1.78 | 11.2 | 2.78 | 3.69 | 1.99 | 1.77 |  | 
